Measured values from patent publication US20100179225A1, “POI Prevention” (CYTOKINE PHARMASCIENCES, INC., priority 2008, published 2010).

Legend:
[1] = system: C57BL/6J mice; test: Anastomotic wound healing (hydroxyproline content, bursting pressure), mouse; assay type: in vivo; conditions: 5 mg/kg i.v. 90 minutes before transection; POD 2, 5 and 10
Method: C57BL/6J mice were treated with 0 mg/kg (placebo) or 5 mg/kg CNI-1493 90 minutes before colonic transection followed by an anastomosis with 8-10 interrupted polypropylene 8.0 sutures. On postoperative days (POD) 2, 5 and 10 anastomotic tissue was investigated for disturbances of wound healing by measurement of hydroxyproline content and bursting pressure.
Hydroxyproline content was determined from an 1 cm perianastomotic region as described before (Woessner J. F., Jr. The determination of hydroxyproline in tissue and protein samples containing small proportions of this imino acid. Arch Biochem Biophys 1961; 93:440-447). Results were normalized as micrograms of hydroxyproline per gram tissue.
Anastomotic bursting pressure (ABP) was measured directly after sacrifice and sampling a 3 cm colonic segment including the anastomotic site. The anastomotic specimen was cleared from feces and ligated twice at the distal end using a 6-0 polyglactin (Vicryl™, Ethicon, Belgium) suture. An 18 G arterial catheter (Vygon, France) was inserted intraluminally within the specimen at the proximal end and two stay sutures were tied to prevent leakage. […] The intraluminal pressure (mmHg) was measured and recorded using a pressure transducer with an amplifier and recorded by the Biopac A/D systems (Biopac Systems, Goleta, USA). […]

[2] = system: nitric oxide (NO) production in ME; test: Nitric oxide release from rat ME cultures (Griess reaction) after IM; assay type: in vivo; conditions: rats
Method: Animals underwent IM after intravenous CNI-1493 (5 mg/kg) or oral CPSI-2364 (1 mg/kg or 0.1 mg/kg) administration 90 minutes before surgery. Control animals received CNI-1493 (5 mg/kg) intravenously or CPSI-2364 orally (1 mg/kg or 0.1 mg/kg), but were not operated.
Total ME from small intestine was isolated 24 h after operation as described above and then cut into small pieces and washed for 30 minutes in PBS containing a penicillin/streptomycin (200U/200 μg) mixture. Aliquots of ˜50 mg were incubated in 1 mL of DMEM at 37° C. and 5% CO2 for further 24 hours and tissue culture supernatants were frozen in liquid nitrogen. The muscle tissue was blotted dry, and the exact weight was measured. To quantify the generation of NO from intestinal smooth muscle preparations, nitrite production was measured by the Griess reaction as described previously (Kalff J C, Schraut W H, Billiar T R et al. Role of inducible nitric oxide synthase in postoperative intestinal smooth muscle dysfunction in rodents. Gastroenterology 2000; 118:316-327). In brief, supernatant from the tissue culture was mixed with an equal volume of Griess reagent (0.1% N-(1-napthyl)ethyl-enediamine dihydrochloride and 1% sulfanilamide in 6% phosphoric acid; 1:1) and incubated for 10 minutes. The absorbance at 550 nm was measured with a microplate reader and compared with standard dilutions of sodium nitrite. […]

[3] = system: apoptotic cells in graft muscularis; test: Apoptosis within smooth muscle layer of grafts (TUNEL); assay type: in vivo, Lewis rats; conditions: 1 mg/kg
Method: Syngeneic orthotopic small intestinal transplantation was performed in Lewis rats as previously described (Schwarz N T, Nakao A, Nalesnik M A, Kalff J C, Murase N, Bauer A J. Protective effects of ex vivo graft radiation and tacrolimus on syngeneic transplanted rat small bowel motility. Surgery 2002; 131: 413-423). […] Then the graft vascular bed was perfused with chilled UW solution (University of Wisconcin) and the intestinal lumen was irrigated with 50 ml cold 0.9% NaCl solution containing […]. neomycin sulfate (Uro Nebacetin N, Nycomed, Germany). The graft was stored in cold UW solution during the preparation of the recipient. An end-to-side anastomosis between the graft aorta and the recipient infra-renal aorta, and between the graft vein and recipient vena cava, was performed. Approximately 80% of the recipient intestine was removed and enteric continuity was restored by proximal and distal end-to-end intestinal anastomoses. […]
Apoptotic cells within the smooth muscle layer of the grafts were detected 3 and 18 h after reperfusion by detection of DNA double strand breaks with a commercially available TUNEL kit (Roche, Mannheim, Germany) according to the manufactures instructions.

[4] = system: neutrophils in ME; test: Neutrophil infiltration into rat ME (myeloperoxidase staining) after IM; assay type: in vivo; conditions: rats, 24 hours after IM (FIG. 10)
Method: Animals within examples referring to FIGS. 2-9 were treated 90 minutes before operation with 0 mg/kg (placebo group), or 5 mg/kg bodyweight CNI-1493. In further experiments in rats or mice 0.1, 1.0 or 10 mg/kg CPSI-2364 were administered 90 minutes before surgical procedure via oral route. Oral (p.o.) administration was performed via a gastric tube. CNI-1493 and CPSI-2364 were dissolved in 2.5% mannitol. Placebo and CNI-1493 or CPSI-2364 groups were subdivided in two further groups. One was sham operated (laparotomy without IM) while the other underwent laparotomy followed by IM.
Specimens for histochemical analysis were prepared 24 h after operation and performed on whole mounts of the distal jejunum, as described before in detail (n=5-7 each group) 9. In brief, jejunal segments were opened, immersed in chilled Krebs-Ringer buffer (KRB) and fixed in 100% ethanol for 10 minutes. After washing with KRB, mucosa and submucosa were stripped off and ME whole mounts were used for detection of myeloperoxidase (MPO) positive cells (neutrophils). […] MPO+-cells were counted under a microscope (TE-2000, Nikon, Duesseldorf, Germany) in 5 randomly chosen areas in each specimen.
Example 3 was repeated in rats and mice, i.e. the infiltration of neutrophils within the ME after preoperative p.o. application of the drug was analyzed (FIGS. 10 and 11). […]

Row | anastomotic bursting pressure vs placebo [1] | anastomotic hydroxyproline content vs placebo [1] | Compound | NO production from ME vs placebo IM ([2]; 0.1 mg/kg bodyweight p.o.) | NO production from ME vs placebo IM ([2]; p.o. preoperative (FIG. 12)) | number of apoptotic bodies in muscularis ([3]; 3 h after reperfusion) | number of apoptotic bodies in muscularis ([3]; 18 h after reperfusion) | neutrophils in ME compared to the placebo IM group ([4]; 0.1 mg/kg bodyweight p.o.) | neutrophils in ME compared to the placebo IM group ([4]; p.o. preoperative)
1 | did not differ at any time | did not differ at any time | C/C(=N\N=C(N)N)c1cc(NC(=O)CCCCCCCCC(=O)Nc2cc(/C(C)=N/N=C(N)N)cc(/C(C)=N/N=C(N)N)c2)cc(/C(C)=N/N=C(N)N)c1.Cl.Cl.Cl.Cl [CNI-1493] |  |  |  |  |  | 
2 |  |  | C/C(=N\N=C(N)N)c1cc(NC(=O)CCCCCCCCC(=O)Nc2cc(/C(C)=N/N=C(N)N)cc(/C(C)=N/N=C(N)N)c2)cc(/C(C)=N/N=C(N)N)c1.CS(=O)(=O)O.CS(=O)(=O)O.CS(=O)(=O)O.CS(=O)(=O)O [CPSI-2364] | led to the described results | significantly diminished | 21.0 | 7.2 | led to the described results | significant reduction of neutrophils
